Measured values published in patent US20180207228A1, “PEPTIDE COMBINATIONS AND USES THEREOF FOR TREATING GRASS ALLERGY” (ALK-Abelló A/S, priority 2015, published 2018).
Where no end group is shown, it is not given here.

Assays:
Assay type in all cases: cell-based, human
[1] = tested on: allergen specific T cells; assay: T cell proliferation assay (72 h) on donor derived T cell lines (TCL02/TCL03); conditions: for Proliferation % donor coverage (TCL-02 DK1): T cell lines TCL-02 DK1, 30 donors, hit criteria SI>=2, CPM>=1000; for Proliferation strength (TCL-02 DK1): T cell lines TCL-02 DK1, strength of response (average relative magnitude)
Excerpt: Isolated PBMCs (peripheral blood mononuclear cells) obtained from the donors described in Example 2 were CD8 depleted and the T cell lines were established by stimulating the cultures with nPhl p1, mix of nPhl p 2 and […] 5 and […] established for each of the donors tested by stimulating with the mixture of above listed allergens. Grass allergic donors were recruited (cohort DK1 including 30 grass allergic individuals, DK2 including 24 grass allergic individuals and US1 including 15 grass allergic individuals). PBMCs were isolated from freshly drawn heparinized blood by gradient centrifugation on lymphoprep (Nycomed, Norway), washed twice and re-suspended in RPMI 1640 medium with HEPES and ultraglutamine (Cambrex, Belgium) supplemented with 5% v/v human AB-serum (Cambrex, Belgium), 100 units/ml penicillin, and 0.1 mg/ml streptomycin (Sigma, St Louis, USA) (referred to as 5% AB-medium). Aliquots of the isolated PBMCs were frozen and were thawed later to stimulate the T cell lines. Additionally either fresh or thawed PBMCs were used as antigen presenting cells (APCs) in the proliferation assay as described later. In some cases the PBMCs were freezed at this stage and thawed later on to continue the experiment as described in the following. The isolated PBMCs (fresh or thawed) were CD8 depleted by MACS magnetic depletion according to the manufacturer's instructions (Miltenyi Biotec, Bergisch Gladbach, Germany). On day 0 the CD8-depleted PBMCs (2×10^6/ml) were stimulated in 1 ml bulk cultures in AB medium in 24 well plates (Nunc, Denmark) with the mixture of natural allergens: nPhl p 1 (0.5 μg/ml), mix of […]). […] On day 14 cells were harvested to obtain T cell line generation 01 (referred to as TCL01). Restimulation of T cell lines were performed in AB-medium with the thawed autologous PBMCs (10^6/well, irradiated 2500 Rad), the above mixture of natural allergens (concentration as mentioned above), and PHA-P (0.5 μg/ml, Difco, Detroit, Mich., USA). rIL-2 was added at day 17, 18 and 19. On day 24 cells were harvested to obtain T cell line generation 02 (referred as TCL02). T cells were isolated, washed, counted and used for T cell proliferation assay as described later. Remaining cells were frozen for later thawing and re-stimulations. The T cell line generation 2 (TCL02) were thawed and were re-stimulated with allogeneic Epstein Bar Virus transformed lymphoblastoid cell lines (EBV) B cells (JY cells, 10^5/well, irradiated 3500 Rad), allogeneic PBMCs (10^6/well, irradiated 2500 Rad), and 0.5 μg/ml PHA-P and subsequent addition of rIL-2 at days 3-5 to generate T cell line generation 03 (referred to as TCL03). […] To summarize ELISpot experiments were carried out at day 14 (with TCL01) and proliferation assay on either day 24 (with TCL02) or at day 34 (with TCL03). […] To ensure that all T cell epitopes regions from the major and intermediate grass allergens of the grass were identified T cell screening was carried out with either overlapping peptides or selected peptides. […] These were overlapping 20-mer peptides spanning the entire full length amino acid sequence of […] and selected high binder peptides from Phl p 4 were tested. Additionally 21, 15 mer peptides were tested which were derived from various group 1 and 5 allergens. Also, 67 peptides from homologous grass allergens were tested. Finally some reference peptides and mixes thereof were also tested. The 15-mer peptides were selected on the basis of predicted and measured promiscuous HLA binding and of sequence homology between known proteins sequences from the relevant pooideae grasses and the Bermuda grass. […] To get comprehensive data from all the donors the peptides were tested in both Fluorospot/Elispot (day 14, TCL01) and proliferation (day 24, TCL02).

[2] = tested on: release of IL-5 upon T cell activation; assay: Fluorospot assay, IL-5 release (DK1-TCL01, US1-TCL01); conditions: head prints TCL-02 DK1; text: 25 TCL-01 DK1 lines
Protocol: (§1) Grass allergic donors were recruited (cohort DK1 including 30 grass allergic individuals, DK2 including 24 grass allergic individuals and US1 including 15 grass allergic individuals). PBMCs were isolated from freshly drawn heparinized blood by gradient centrifugation on lymphoprep (Nycomed, Norway), washed twice and re-suspended in RPMI 1640 medium with HEPES and ultraglutamine (Cambrex, Belgium) supplemented with 5% v/v human AB-serum (Cambrex, Belgium), 100 units/ml penicillin, and 0.1 mg/ml streptomycin (Sigma, St Louis, USA) (referred to as 5% AB-medium). Aliquots of the isolated PBMCs were frozen and were thawed later to stimulate the T cell lines. Additionally either fresh or thawed PBMCs were used as antigen presenting cells (APCs) in the proliferation assay as described later. In some cases the PBMCs were freezed at this stage and thawed later on to continue the experiment as described in the following. The isolated PBMCs (fresh or thawed) were CD8 depleted by MACS magnetic depletion according to the manufacturer's instructions (Miltenyi Biotec, Bergisch Gladbach, Germany). On day 0 the CD8-depleted PBMCs (2×10^6/ml) were stimulated in 1 ml bulk cultures in AB medium in 24 well plates (Nunc, Denmark) with the mixture of natural allergens: nPhl p 1 (0.5 μg/ml), mix of nPhl p 2/nPhl p 3 (1.0 μg/ml), nPhl p 4 (0.5 μg/ml), nPhl p 5 (0.5 μg/ml) and nCyn d 1 (0.5 μg/ml). Amount of 65 U, 30 U, and 30 U recombinant IL-2 (Chiron, USA) were added per well at days 5, 6 and 7, respectively. On day 14 cells were harvested to obtain T cell line generation 01 (referred to as TCL01).
(§2) On day 14 the T cells of TCL01 were isolated, washed and counted. The isolated T cells of TCL01 generation were used to perform either ELISpot or Fluorospot assay. TCL01 were further re-stimulated as described in the next paragraph for use in T cell proliferation. The aliquot for use in T cell proliferation was re-stimulated on day 14 to carry out proliferation experiment at day 24.
(§3) In the Fluorospot assays, release of IL-5 and IFN-γ upon T cell activation (of donor derived lines DK1-TCL01, and US1-TCL01) with a peptide or a peptide-mix described herein was measured by Fluorospot assay kit (Mabtech AB) and procedures were followed as per manufacturer's instructions. Briefly anti-human IL-5 and anti-human IFN-γ coated 96 well plates were obtained and blocked with 10% AB serum in RPMI. The plates were washed thoroughly and the isolated T cells were plated and incubated with either single peptides (2 μg/ml) or peptide mixes (2 μg/ml), or allergens nPhl p1, nPhl p 2, nPhl p 3, nPhl p 4, nPhl p 5, Cyn d 1 at 2 μg/ml for 20 hrs/37° C./5% CO2. After the incubation time the cells were removed by emptying the plate. Detection antibodies 7-B6-1-FS-FITC (1:200) and 5A10-biotin (2 μg/ml) were diluted in PBS-0.1% BSA and were added to the plate and incubated for 2 hours/room temperature (RT). There-after the plates were washed and anti-FITC-green (1:200) and SA-Red (1:200) diluted in PBS±0.1% BSA were added and incubated for 1 hour/RT/dark. After the incubation period the plates were washed, emptied and fluorescence enhancer solution was added for 15 minutes/RT. Plates were emptied, fluorescence enhancer solution was firmly tapped out against a clean paper, soft plastic under drain was removed and the plates were left in the dark to dry. The counts were inspected in a fluorospot reader. Hit criteria for peptide were 20 SFCs/10^6 PBMCs, p≤0.05 and poisson 0.05 stimulated cells compared to background, and a stimulation index (SI)≥2.
(§4) The peptides were identified as hits if they fulfilled the criteria as mentioned below where stimulation index (SI) value of 2 or above, Poisson value=<0.05 and P value=<0.05, SFC>=20 (IL-5/IFN-g)/10^6 cells and CPM>=1000 (proliferation) SI can be defined as [[…]/medium control] in a Fluorospot assay and [counts per minute (cpm)/medium control] in a proliferation assay.

[3] = tested on: release of IFN-γ upon T cell activation; assay: Fluorospot assay, IFN-γ release (DK1-TCL01, US1-TCL01); conditions: head prints TCL-02 DK1; 17 TCL-01 DK1 lines
Protocol: as §1, §2, §3, §4

[4] = tested on: grass pollen allergic donor derived TCL-03 lines; assay: Extended cross-reactivity study, proliferation on TCL03 DK1+DK2 (Study XR2), scoring; set-up: Cross-reactivity score: scale not given here; conditions: homologue of peptide 238 (Phl p 5); Table 48

Compound	Proliferation % donor coverage (TCL-02 DK1) [1]	Proliferation strength (TCL-02 DK1) [1]	IL-5-Fluorospotr % donor coverage (TCL-02 DK1) [2]	IFN-gamma % donor coverage (TCL-02 DK1) [3]	Cross-reactivity score [4]
RNVFDEVIPTAFKIGKTYTP-OH [compound 44]	20.00%	1.40	0.00%	0.00%	–
VRYTTEGGTKTEAEDVIPEG-OH [compound 12]	23.33%	7.00	8.00%	8.00%	–
CC[C@H](C)[C@H](NC(=O)[C@@H](NC(=O)[C@H](CCCNC(=N)N)NC(=O)[C@H](CC(C)C)NC(=O)[C@H](C)NC(=O)[C@H](CCC(=O)O)NC(=O)[C@@H](NC(=O)[C@H](CC(C)C)NC(=O)[C@@H](NC(=O)[C@H](C)NC(=O)[C@@H](NC(=O)[C@H](Cc1ccc(O)cc1)NC(=O)[C@H](C)NC(=O)[C@@H](N)CC(=O)O)C(C)C)[C@@H](C)O)[C@@H](C)O)C(C)C)C(=O)N[C@@H](C)C(=O)O [compound 128]	60.00%	13.50	41.67%	12.00%	–
GFGMLLRKYGIAAENVIDVK-OH [compound 48]	30.00%	4.70	4.00%	15.00%	–
AFGAMAKKGDEQKLRSAGEL-OH [compound 22]	26.67%	2.10	4.00%	15.00%	–
YLALLVKYAAGDGNIVAVDI-OH [compound 105]	16.67%	1.90	12.00%	4.00%	–
EQKLIEKINAGFKAALAAAA-OH [compound 62]	36.67%	6.20	4.00%	0.00%	–
TKGKVDPTDYFRNEQSIPPL-OH [compound 60]	13.33%	2.60	0.00%	0.00%	–
CSCC[C@H](N)C(=O)N[C@@H](CCCNC(=N)N)C(=O)N[C@@H](CC(N)=O)C(=O)N[C@H](C(=O)N[C@@H](Cc1ccccc1)C(=O)N[C@@H](CC(=O)O)C(=O)N[C@@H](CC(=O)O)C(=O)N[C@H](C(=O)N[C@H](C(=O)N1CCC[C@H]1C(=O)N[C@@H](C)C(=O)N[C@@H](CC(=O)O)C(=O)N[C@@H](Cc1ccccc1)C(=O)N[C@@H](CCCCN)C(=O)N[C@H](C(=O)O)C(C)C)C(C)C)C(C)C)C(C)C [compound 126]	37.93%	0.40	8.33%	0.00%	–
IPKVPPGPNITATYGDKWLD-OH [compound 14]	3.33%	0.40	0.00%	0.00%	–
YFKGNFERLAITKGKVDPTD-OH [compound 59]	30.00%	3.20	0.00%	0.00%	–
CC[C@H](C)[C@H](NC(=O)[C@H](Cc1ccccc1)NC(=O)[C@H](CCCCN)NC(=O)[C@H](Cc1ccc(O)cc1)NC(=O)[C@@H](NC(=O)[C@H](CCC(=O)O)NC(=O)[C@H](Cc1ccc(O)cc1)NC(=O)[C@H](C)NC(=O)CNC(=O)CNC(=O)[C@@H](NC(=O)[C@@H](N)CO)[C@@H](C)O)[C@@H](C)O)C(=O)N1CCC[C@H]1C(=O)N[C@@H](CO)C(=O)N[C@@H](CC(C)C)C(=O)N[C@@H](CCC(=O)O)C(=O)N[C@@H](C)C(=O)N[C@@H](C)C(=O)N[C@H](C(=O)N[C@@H](CCCCN)C(=O)O)C(C)C [compound 405]	–	–	–	–	5
